Experimental data taken from patent publication US20230263822A1, “MODULATION OF FACTOR 11 EXPRESSION” (Ionis Pharmaceuticals, Inc., priority 2008, published 2023).
Strand notation (5' to 3'): a small letter for the sugar, then the base; units joined by * are phosphorothioate-linked, units joined directly phosphodiester-linked; [ ] holds rarer units or linkages, { } end groups; capitals alone tell only the bases. e = 2'-O-(2-methoxyethyl) (MOE); [5mC] = 5-methylcytosine; d = 2'-deoxy (DNA)

How the values were obtained:
Factor 11 mRNA = Factor 11 mRNA in cynomolgus monkey liver, day 85 (Example 45); type: in vivo; conditions: cynomolgus monkeys, s.c. escalating doses 5-25 mg/kg over 12 weeks
Description: Groups, each consisting of two male and three female monkeys, were injected subcutaneously with ISIS 416838, ISIS 416850, ISIS 416858, ISIS 416864, or ISIS 417002 in escalating doses. Antisense oligonucleotide was administered to the monkeys at 5 mg/kg three times per a week for week 1; 5 mg/kg twice per week for weeks 2 and 3; 10 mg/kg three times per week for week 4; 10 mg/kg twice per week for weeks 5 and 6; 25 mg/kg three times per week for week 7; and 25 mg/kg twice per week for weeks 8, 9, 10, 11, and 12. One control group, consisting of two male and three female monkeys, was injected subcutaneously with PBS according to the same dosing regimen. An additional experimental group, consisting of two male and three female monkeys, was injected subcutaneously with ISIS 416850 in a chronic, lower dose regimen. Antisense oligonucleotide was administered to the monkeys at 5 mg/kg three times per week for week 1; 5 mg/kg twice per week for week 2 and 3; 10 mg/kg three times per week for week 4; and 10 mg/kg twice per week for weeks 5 to 12. Body weights were measured weekly. Blood samples were collected 14 days and 5 days before the start of treatment and subsequently once per week for Factor 11 protein activity analysis in plasma, fibrinogen measurement, PT and aPTT measurements, bleeding times, and measurement of various hematologic factors. On day 85, the monkeys were euthanized by exsanguination while under deep anesthesia, and organs harvested for further analysis.
On day 85, RNA was extracted from liver tissue for real-time PCR analysis of Factor 11 using primer probe set LTS00301 (forward primer sequence […], designated herein as SEQ ID NO 271; reverse primer sequence […], designated herein as SEQ ID NO: 272; and probe sequence TGCAGGCACAGCATCCCAGTGTTCTX, designated herein as SEQ ID NO. 273). Results are presented as percent inhibition of Factor 11, relative to PBS control.

human Factor 11 mRNA = assay: Dose-dependent inhibition of human Factor 11 in HepG2 cells, electroporation 375-12,000 nM (Example 32); type: cell-based; conditions: for Percent inhibition of Factor 11 mRNA at 375 nM / Percent inhibition of Factor 11 mRNA at 750 nM / IC50: electroporation; for Percent inhibition of Factor 11 mRNA at 375 nM / Percent inhibition of Factor 11 mRNA at 750 nM / Percent inhibition of Factor 11 mRNA at 1,500 nM / Percent inhibition of Factor 11 mRNA at 3,000 nM / Percent inhibition of Factor 11 mRNA at 6,000 nM / Percent inhibition of Factor 11 mRNA at 12,000 nM: approx. 16 hours, relative to untreated control cells; for Percent inhibition of Factor 11 mRNA at 1,500 nM: electroporation, 1,500 nM; for Percent inhibition of Factor 11 mRNA at 3,000 nM: electroporation, 3,000 nM; for Percent inhibition of Factor 11 mRNA at 6,000 nM: electroporation, 6,000 nM; for Percent inhibition of Factor 11 mRNA at 12,000 nM: electroporation, 12,000 nM; for IC50: Factor 11 mRNA expression
Description: These gapmers were tested at various doses in HepG2 cells. Cells were plated at a density of 20,000 cells per well and transfected using electroporation with 375 nM, 750 nM, 1,500 nM, 3,000 nM, 6,000 nM and 12,000 nM concentrations of antisense oligonucleotide, as specified in Table 47. After a treatment period of approximately 16 hours, RNA was isolated from the cells and Factor 11 mRNA levels were measured by quantitative real-time PCR. Human Factor 11 primer probe set RTS 2966 was used to measure mRNA levels. Factor 11 mRNA levels were adjusted according to total RNA content, as measured by RIBOGREEN. Results are presented as percent inhibition of Factor 11, relative to untreated control cells.
ISIS 416850, ISIS 416858, ISIS 445522, and ISIS 445531 (see Table 45 above) were re-tested in vitro along with the microwalk gapmers under the same conditions described above.
The first two listed gapmers in Table 47 are the original gapmers (ISIS 416850 and ISIS 416858) from which the remaining gapmers were designed via microwalk and are designated by an asterisk.

[1] = Tolerability in CD1 mice: liver function (Example 41); conditions: 50 mg/kg s.c. twice per week for 6 weeks, plasma
[2] = Tolerability in CD1 mice: hematology assays (Example 43); type: in vivo; conditions: 50 mg/kg s.c. twice per week for 6 weeks, blood

| Substance | % inhibition of Factor 11 mRNA in the cynomolgus monkey liver relative to the PBS control (Factor 11 mRNA) [%] | Platelets [2] [nL⁻¹] | RBC [2] [pL⁻¹] | WBC [2] [nL⁻¹] | hematocrit [2] [%] | hemoglobin [2] [g/dL] | lymphocytes [2] [%] | monocytes [2] [%] | neutrophils [2] [%] | further results |
| --- | --- | --- | --- | --- | --- | --- | --- | --- | --- | --- |
| 416838 (antisense GCAACCGGGATGATGAGTGC; 5-10-5 gapmer, further chemistry not given here) [compound 416838] | 37 | – | – | – | – | – | – | – | – | – |
| 416850 (antisense TGCACAGTTTCTGGCAGGCC; 5-10-5 gapmer, further chemistry not given here) [compound 416850] | 84 | – | – | – | – | – | – | – | – | Percent inhibition of Factor 11 mRNA at 375 nM (human Factor 11 mRNA): 40%; Percent inhibition of Factor 11 mRNA at 750 nM (human Factor 11 mRNA): 59%; Percent inhibition of Factor 11 mRNA at 1,500 nM (human Factor 11 mRNA): 69%; Percent inhibition of Factor 11 mRNA at 3,000 nM (human Factor 11 mRNA): 87%; Percent inhibition of Factor 11 mRNA at 6,000 nM (human Factor 11 mRNA): 90%; Percent inhibition of Factor 11 mRNA at 12,000 nM (human Factor 11 mRNA): 95%; IC50 (human Factor 11 mRNA): 560 nM |
| 416858 (antisense ACGGCATTGGTGCACAGTTT; 5-10-5 gapmer, further chemistry not given here) [compound 416858] | 90 | – | – | – | – | – | – | – | – | Percent inhibition of Factor 11 mRNA at 375 nM (human Factor 11 mRNA): 31%; Percent inhibition of Factor 11 mRNA at 750 nM (human Factor 11 mRNA): 35%; Percent inhibition of Factor 11 mRNA at 1,500 nM (human Factor 11 mRNA): 78%; Percent inhibition of Factor 11 mRNA at 3,000 nM (human Factor 11 mRNA): 85%; Percent inhibition of Factor 11 mRNA at 6,000 nM (human Factor 11 mRNA): 90%; Percent inhibition of Factor 11 mRNA at 12,000 nM (human Factor 11 mRNA): 93%; IC50 (human Factor 11 mRNA): 830 nM |
| 416864 (antisense GGCAGCGGACGGCATTGGTG; 5-10-5 gapmer, further chemistry not given here) [compound 416864] | 44 | – | – | – | – | – | – | – | – | – |
| 417002 (antisense GGTGCACAGTTTCTGGCAGG; 2-13-5 gapmer chemistry, further chemistry not given here) [compound 417002] | 57 | – | – | – | – | – | – | – | – | – |
| 445522 (antisense eG*e[5mC]*eA*e[5mC]*eA*dG*dT*dT*dT*d[5mC]*dT*dG*dG*e[5mC]*eA*eG*eG*e[5mC]) [compound 445522] | – | – | – | – | – | – | – | – | – | Percent inhibition of Factor 11 mRNA at 375 nM (human Factor 11 mRNA): 59%; Percent inhibition of Factor 11 mRNA at 750 nM (human Factor 11 mRNA): 71%; Percent inhibition of Factor 11 mRNA at 1,500 nM (human Factor 11 mRNA): 83%; Percent inhibition of Factor 11 mRNA at 3,000 nM (human Factor 11 mRNA): 82%; Percent inhibition of Factor 11 mRNA at 6,000 nM (human Factor 11 mRNA): 81%; Percent inhibition of Factor 11 mRNA at 12,000 nM (human Factor 11 mRNA): 92% |
| 445531 (antisense eG*eG*e[5mC]*eA*eT*dT*dG*dG*dT*dG*d[5mC]*dA*d[5mC]*eA*eG*eT*eT*eT) [compound 445531] | – | – | – | – | – | – | – | – | – | Percent inhibition of Factor 11 mRNA at 375 nM (human Factor 11 mRNA): 44%; Percent inhibition of Factor 11 mRNA at 750 nM (human Factor 11 mRNA): 64%; Percent inhibition of Factor 11 mRNA at 1,500 nM (human Factor 11 mRNA): 78%; Percent inhibition of Factor 11 mRNA at 3,000 nM (human Factor 11 mRNA): 86%; Percent inhibition of Factor 11 mRNA at 6,000 nM (human Factor 11 mRNA): 91%; Percent inhibition of Factor 11 mRNA at 12,000 nM (human Factor 11 mRNA): 93%; IC50 (human Factor 11 mRNA): 440 nM |
| ISIS 445522: 5-8-5 or 6-8-6 MOE microwalk gapmer (Table 44) (antisense eG*e[5mC]*eA*e[5mC]*eA*dG*dT*dT*dT*d[5mC]*dT*dG*dG*e[5mC]*eA*eG*eG*e[5mC]) | – | – | – | – | – | – | – | – | – | ALT [1]: 51 IU/L; AST [1]: 110 IU/L; Albumin [1]: 3.4; Bilirubin [1]: 0.19 mg/dL |
| ISIS 445531: 5-8-5 or 6-8-6 MOE microwalk gapmer (Table 44) (antisense eG*eG*e[5mC]*eA*eT*dT*dG*dG*dT*dG*d[5mC]*dA*d[5mC]*eA*eG*eT*eT*eT) | – | – | – | – | – | – | – | – | – | ALT [1]: 60 IU/L; AST [1]: 127 IU/L; Albumin [1]: 3.2; Bilirubin [1]: 0.16 mg/dL |
| ISIS 449707: 3-8-3, 4-8-4, 2-10-2, 3-10-3 or 4-10-4 MOE microwalk gapmer (Table 46) (antisense e[5mC]*eA*e[5mC]*eA*dG*dT*dT*dT*d[5mC]*dT*dG*dG*e[5mC]*eA*eG*eG) | – | 1386 | 8.4 | 6 | 45 | 12.4 | 85 | 3 | 11 | – |
| ISIS 449708: 3-8-3, 4-8-4, 2-10-2, 3-10-3 or 4-10-4 MOE microwalk gapmer (Table 46) (antisense eA*e[5mC]*eA*dG*dT*dT*dT*d[5mC]*dT*dG*dG*e[5mC]*eA*eG) | – | 1395 | 9.2 | 7 | 48 | 13.2 | 77 | 5 | 17 | – |
| ISIS 449709: 3-8-3, 4-8-4, 2-10-2, 3-10-3 or 4-10-4 MOE microwalk gapmer (Table 46) (antisense eG*e[5mC]*eA*e[5mC]*dA*dG*dT*dT*dT*d[5mC]*dT*dG*dG*d[5mC]*eA*eG*eG*e[5mC]) | – | 1447 | 9.2 | 5 | 49 | 13.2 | 76 | 4 | 19 | – |
| ISIS 449710: 3-8-3, 4-8-4, 2-10-2, 3-10-3 or 4-10-4 MOE microwalk gapmer (Table 46) (antisense e[5mC]*eA*e[5mC]*dA*dG*dT*dT*dT*d[5mC]*dT*dG*dG*d[5mC]*eA*eG*eG) | – | 1245 | 9.1 | 7 | 48 | 13.5 | 81 | 3 | 15 | – |
| ISIS 449711: 3-8-3, 4-8-4, 2-10-2, 3-10-3 or 4-10-4 MOE microwalk gapmer (Table 46) (antisense eA*e[5mC]*dA*dG*dT*dT*dT*d[5mC]*dT*dG*dG*d[5mC]*eA*eG) | – | 1225 | 9.0 | 6 | 48 | 13.3 | 79 | 6 | 15 | – |
